Assay [1] has as its system passive cutaneous anaphylaxis (PCA). Briefly: Test for antiallergic action: rat passive cutaneous anaphylaxis (PCA) reaction. The settings on record: rats, oral, 50 mg/kg in olive oil, 1 hour before antigen challenge, read-out: Inhibition Rate (%) Anti-PCA. Format: in vivo. As to the method: The antiallergic action was evaluated by passive cutaneous anaphylaxis (PCA) test using rats. The test was carried out using Wister male rats having body weights of 150 - 200 g. Physiological saline containing anti-dinitrophenyl group (DNP) mouse IgE monoclonal antibody (commercially available from Seikagaku Kogyo Co., Ltd.) was intracutaneously injected in the skin of the back of each rat. Twenty three hours later, a suspension of the test compound in olive oil was orally administered at a dose of 50 mg/kg to each rat. One hour later, 0.5 ml of physiological saline containing 2 mg/ml of ovalbumin modified with dinitrophenyl hapten and 1% Evans blue were administered to each rat via femoral vein. Thirty minutes later, the rat was killed by cutting the carotid artery. The skin was peeled off and the portion stained in blue was cut out. The cut out portion was minced in […] and the pigment was extracted at 60°C for 48 hours. The minced skin was removed by centrifugation (1500 x g, 10 min.) and the absorbance at 620 nm of the supernatant was measured. Based on a preliminarily prepared calibration curve, the pigment leaked to the topical portion was quantified. As a control, olive oil alone was administered and the ratio of the amount of the pigment in test groups to the amount of the pigment in control group is expressed as inhibition rate.

Another assay concerns the target rabbit platelets (Oryctolagus cuniculus, UniProt G1TEI7). Briefly: in vitro platelet agglutination inhibition test (PAF-induced). Format: cell-based. The settings on record: rabbit platelet-rich plasma, PAF final concentration 10 ng/ml, 37°C; read-out: PAF-Induced Platelet Aggregation IC50 (converted).
For a further assay, the target named is T1, PAF receptor (Oryctolagus cuniculus, UniProt G1TEI7).
T1 construct: Cell membrane fraction of rabbit platelets was prepared; from tissue; host or cells: rabbit platelets (cell membrane fraction)
Briefly: Binding test using [3H]-PAF (PAF receptor binding test). Further details: species or system rabbit. The settings on record: rabbit platelet membrane fraction, [3H]-PAF 0.4 nM, 25°C, 60 minutes; read-out: Receptor Binding Inhibition IC50 (converted).

Another assay has as its system histamine. In words: Histamine-antagonizing action: histamine-induced skin pigment leakage in rats. Format: in vivo. The following applies: Rattus norvegicus, oral, 50 mg/kg in olive oil, 1 hour before intracutaneous histamine (50 µl of 900 µM), read-out: Inhibition Rate (%) Antihistamine. Here is the method: A suspension of a test compound in olive oil was orally administered at a dose of 50 mg/kg to each rat of the same kind as those used in 1. One hour later, physiological saline containing 1% Evans blue was intravenously administered at a dose of 3 ml/kg. Immediately thereafter, 50 µl of 900 µM histamine solution was intracutaneously administered to each rat. Thirty minutes later, the pigment in the blue-stained portion in the skin was extracted and quantified as mentioned above. Using the amount of the pigment when olive oil was administered as control, the inhibition rate which is the ratio of the amount of the pigment when the test compound was administered to the control was calculated.

Structures can show the parent of a compound that is named as a salt.

Chain of rabbit platelets (G1TEI7 1-342): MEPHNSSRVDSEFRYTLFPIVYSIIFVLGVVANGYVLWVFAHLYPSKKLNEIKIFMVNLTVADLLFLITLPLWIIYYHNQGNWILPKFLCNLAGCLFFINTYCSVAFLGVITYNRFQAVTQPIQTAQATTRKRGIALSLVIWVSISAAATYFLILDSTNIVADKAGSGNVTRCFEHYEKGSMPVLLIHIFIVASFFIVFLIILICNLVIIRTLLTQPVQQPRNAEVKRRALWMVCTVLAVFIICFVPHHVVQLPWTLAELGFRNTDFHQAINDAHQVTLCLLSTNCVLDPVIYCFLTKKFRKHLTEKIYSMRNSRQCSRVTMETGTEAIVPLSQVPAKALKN
T1 sequence (G1TEI7 1-342): as above

For `Cc1nnc2n(CCCN3CCC(C(O)(c4ccc(F)cc4)c4ccc(F)cc4)CC3)c3ccccc3n12` [Compound 199, 3-methyl-9-[3-[4-[hydroxybis(4-fluorophenyl)methyl]piperidin-1-yl]propyl]-9H-[1,2,4]triazolo[4,3-a]benzimidazole fumaric acid salt], in assay [1], the inhibition (in general, the relative decrease from the control value, in per cent) at 50 mg/kg turned out to be 48%. Further, the figures for the IC50 at rabbit platelets and at PAF receptor were 190 nM and 55.4 nM, respectively.
With `Cc1nnc2c(=O)n(CCCN3CCC(=C(c4ccccc4)c4ccccc4)CC3)c3ccccc3n12` [Compound 4, 4,5-dihydro-1-methyl-5-[3-[4-(diphenylmethylene)piperidin-1-yl]propyl][1,2,4]triazolo[4,3-a] quinoxalin-4(5H)-one], the inhibition at 50 mg/kg in assay [1] came to 44%; in the assay on histamine, 76%. In addition, the IC50 (usually the concentration needed to halve the response being measured) at rabbit platelets is 4080 nM; on PAF receptor, 2040 nM.
As for `Cc1nnc2n(CCCN3CCN(C(c4ccccc4)c4ccccc4)CC3)c3ccccc3n12` [Compound 189, 3-methyl-9-[3-[4-(diphenylmethyl)piperazin-1-yl]propyl]-9H-[1,2,4]triazolo[4,3-a]benzimidazole dihydrochloride], the figures for the inhibition at 50 mg/kg (in assay [1]; in the assay with histamine) were 43% and 57%, respectively. Further, the IC50 was 577 nM on rabbit platelets and 260 nM at PAF receptor.
For the compound `Cc1nnc2n1-c1ccccc1N(CCCN1CCC(c3c[nH]c4ccccc34)CC1)C2` [Compound 49, 4,5-dihydro-1-methyl-5-[3-[4-(3-indolyl)piperidine-1-yl]propyl] [1,2,4]triazolo[4,3-a]quinoxaline], the figures for the inhibition at 50 mg/kg (in assay [1]; in the assay with histamine) were 58% and 65%, respectively. Also, at PAF receptor, the IC50 is 3990 nM.
With `Cc1nnc2n1-c1ccccc1N(CCCN1CCN(C(c3ccc(F)cc3)c3ccc(F)cc3)CC1)C2` [Compound 45, 4,5-dihydro-1-methyl-5-[3-[4-[bis(4-fluorophenyl)methyl]piperazin-1-yl]propyl] [1,2,4]triazolo[4,3-a]quinoxaline], the inhibition at 50 mg/kg in assay [1] is 49%; in the assay on histamine it was 43%. For the same compound, the IC50 on PAF receptor is 622 nM.
Consider `CCc1nnc2n(CCCN3CCC(c4c[nH]c5ccccc45)CC3)c3ccccc3n12` [Compound 193, 3-ethyl-9-[3-[4-(3-indolyl)piperidin-1-yl]propyl]-9H-[1,2,4]triazolo[4,3-a]benzimidazole fumaric acid salt], for which the IC50 on rabbit platelets is 1550 nM; at PAF receptor, 5340 nM.
The corresponding values for `Cc1nnc2n(CCCN3CCC(c4c[nH]c5ccc(Cl)cc45)CC3)c3ccccc3n12` [Compound 195, 3-methyl-9-[3-[4-(5-chloro-3-indolyl)piperidin-1-yl]propyl]-9H-[1,2,4]triazolo[4,3-a] benzimidazole] are 313 nM and 246 nM.
For `COc1cccc(C(O)(c2cccc(OC)c2)C2CCN(CCCN3Cc4nnc(C)n4-c4ccccc43)CC2)c1` [Compound 135, 4,5-dihydro-1-methyl-5-[3-[4-[hydroxybis(3-methoxyphenyl)methyl]piperidin-1-yl]propyl] [1,2,4]triazolo[4,3-a]quinoxaline], the IC50 at rabbit platelets was 1590 nM; on PAF receptor, 37.9 nM.
Regarding `Cc1nnc2n1-c1ccccc1N(CCCN1CCC(c3noc4ccccc34)CC1)C2` [Compound 80, 4,5-dihydro-1-methyl-5-[3-[4-(1,2-benzisoxazol-3-yl)piperidin-1-yl]propyl][1,2,4]triazolo[4,3-a] quinoxaline], the IC50 was 103 nM at rabbit platelets and 770 nM at PAF receptor.
Regarding `Cc1ccc2[nH]cc(C3CCN(CCCn4c5ccccc5n5c(C)nnc45)CC3)c2c1` [Compound 197, 3-methyl-9-[3-[4-(5-methyl-3-indolyl)piperidin-1-yl]propyl]-9H-[1,2,4]triazolo[4,3-a]benzimidazole], the IC50 at rabbit platelets is 586 nM; at PAF receptor, 75 nM.
As to `COc1ccc(C(=C2CCN(CCCN3Cc4nnc(C)n4-c4ccccc43)CC2)c2ccccc2)cc1OC` [Compound 142, 4,5-dihydro-1-methyl-5-[3-[4-[(3,4-dimethoxyphenyl)phenylmethylene]piperidin-1-yl]propyl] [1,2,4]triazolo[4,3,a]quinoxaline], the IC50 at rabbit platelets is 952 nM; on PAF receptor it was 162 nM.
Consider `Cc1nnc2n(CCCN3CCC(C(O)(c4ccccc4)c4ccccc4)CC3)c3ccccc3n12` [Compound 198, 3-methyl-9-[3-[4-(hydroxydiphenylmethyl)piperidin-1-yl]propyl]-9H-[1,2,4]triazolo[4,3-a]benzimidazole fumaric acid salt], for which the values for the IC50 at rabbit platelets and on PAF receptor were 124 nM and 353 nM, respectively.
For the compound `Cc1nnc2n1-c1ccccc1N(CCCN1CCN(C(c3ccccc3)c3ccc(Cl)cc3)CC1)CC2` (stereo not drawn) [Compound 214, 5,6-dihydro-1-methyl-6-[3-[4-[(4-chlorophenyl)phenylmethyl]piperazin-1-yl]propyl]-4H[1,2,4]triazolo[4,3-a][1,5]benzodiazepine fumaric acid salt], in assay [1], the inhibition at 50 mg/kg worked out at 75%. For the same compound, the IC50 at rabbit platelets was 6220 nM.
Consider `Cc1nnc2n(CCCN3CCC(c4c[nH]c5ccc(F)cc45)CC3)c3ccccc3n12` [Compound 196, 3-methyl-9-[3-[4-(5-fluoro-3-indolyl)piperidin-1-yl]propyl]-9H-[1,2,4]triazolo[4,3-a]benzimidazole], for which the 50% inhibitory concentration (IC50) was 30.2 nM at rabbit platelets and 557 nM at PAF receptor.
With `COc1ccc(C(O)(c2ccc(OC)c(OC)c2)C2CCN(CCCN3Cc4nnc(C)n4-c4ccccc43)CC2)cc1OC` [Compound 138, 4,5-dihydro-1-methyl-5-[3-[4-[hydroxybis(3,4-dimethoxyphenyl)methyl]piperidin-1-yl]propyl] [1,2,4]triazolo[4,3-a]quinoxaline], the IC50 was 1320 nM on rabbit platelets and 1170 nM at PAF receptor.
Take `Cc1nnc2n1-c1ccccc1N(CCCN1CCC(=C(c3ccccc3)c3cccs3)CC1)C2` [Compound 164, 4,5-dihydro-1-methyl-5-[3-[4-[phenyl(2-thienyl)methylene]piperidin-1-yl]propyl] [1,2,4]triazolo[4,3,a]quinoxaline]: the IC50 is 747 nM at rabbit platelets and 249 nM at PAF receptor.
With `Cc1nnc2n1-c1ccccc1N(CCCN1CCC(=C(c3ccc(Cl)cc3)c3ccc(Cl)cc3)CC1)C2` [Compound 150, 4,5-dihydro-1-methyl-5-[3-[4-[bis(4-chlorophenyl)methylene]piperidin-1-yl]propyl] [1,2,4]triazolo[4,3,a]quinoxaline], the IC50 is 937 nM at rabbit platelets and 152 nM at PAF receptor.
Take `Cc1cccc(C(O)(c2cccc(C)c2)C2CCN(CCCN3Cc4nnc(C)n4-c4ccccc43)CC2)c1` [Compound 134, 4,5-dihydro-1-methyl-5-[3-[4-[hydroxybis(3-tolyl)methyl]piperidin-1-yl]propyl][1,2,4]triazolo[4,3-a]quinoxaline]: the IC50 is 97.8 nM at rabbit platelets and 9.58 nM on PAF receptor.
Turning to `Cc1nnc2n1-c1ccccc1N(CCCN1CCC(C(=O)c3ccccc3)CC1)C2` [Compound 128, 4,5-dihydro-1-methyl-5-[3-(4-benzoylpiperidin-1-yl)propyl] [1,2,4]triazolo[4,3-a]quinoxaline], the IC50 is 4090 nM on rabbit platelets and 1520 nM on PAF receptor.

For the origin of these results see patent publication EP0536419B1, “TRICYCLIC TRIAZOLE DERIVATIVES, PRODUCTION AND USE THEREOF” (TORAY INDUSTRIES, INC., priority 1991, dated 1992).
